Results reported in PMC10778976, “BAY-3827 and SBI-0206965: Potent AMPK Inhibitors That Paradoxically Increase Thr172 Phosphorylation” (International Journal of Molecular Sciences, 2023).
pIC50: −log10 of the molar value. Values after ≈ are worked out from the molar mass of the structure shown. Where two headings read alike, the source gives them in different places.

What was measured:
human α2β2γ1 complex [1] = target: T1, human α2β2γ1 complex (Homo sapiens, UniProt P54646); assay: Cell-free kinase assay of bacterially expressed human α2β2γ1 complex phosphorylated on Thr172 by CaMKK2; type: biochemical; settings: ATP 200 µM; read-out: IC50, inhibition of human α2β2γ1 complex
T1 construct: (His)6
T1 sequence (P54646 whole entry): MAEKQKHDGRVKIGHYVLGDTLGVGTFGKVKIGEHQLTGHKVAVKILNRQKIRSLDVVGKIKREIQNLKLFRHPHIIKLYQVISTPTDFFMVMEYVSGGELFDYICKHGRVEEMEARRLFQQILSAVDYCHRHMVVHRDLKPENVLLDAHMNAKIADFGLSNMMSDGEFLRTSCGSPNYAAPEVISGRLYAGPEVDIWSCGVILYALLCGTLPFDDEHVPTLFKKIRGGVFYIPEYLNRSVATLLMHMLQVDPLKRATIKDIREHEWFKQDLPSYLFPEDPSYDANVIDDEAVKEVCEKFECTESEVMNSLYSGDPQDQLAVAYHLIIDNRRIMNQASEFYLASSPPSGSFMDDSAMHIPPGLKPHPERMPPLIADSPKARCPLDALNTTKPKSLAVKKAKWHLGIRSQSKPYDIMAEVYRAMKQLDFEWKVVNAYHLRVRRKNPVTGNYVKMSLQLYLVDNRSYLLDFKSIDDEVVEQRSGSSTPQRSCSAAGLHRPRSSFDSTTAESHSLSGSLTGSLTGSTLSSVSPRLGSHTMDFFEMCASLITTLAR
T1 sequence (O43741 whole entry partner): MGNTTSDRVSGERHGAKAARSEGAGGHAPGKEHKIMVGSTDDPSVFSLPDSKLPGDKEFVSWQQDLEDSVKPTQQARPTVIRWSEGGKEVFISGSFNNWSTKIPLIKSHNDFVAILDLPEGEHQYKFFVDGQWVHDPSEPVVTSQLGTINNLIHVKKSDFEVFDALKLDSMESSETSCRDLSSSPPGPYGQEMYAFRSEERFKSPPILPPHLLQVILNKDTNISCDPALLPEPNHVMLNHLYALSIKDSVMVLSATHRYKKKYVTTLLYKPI
T1 sequence (P54619 whole entry partner): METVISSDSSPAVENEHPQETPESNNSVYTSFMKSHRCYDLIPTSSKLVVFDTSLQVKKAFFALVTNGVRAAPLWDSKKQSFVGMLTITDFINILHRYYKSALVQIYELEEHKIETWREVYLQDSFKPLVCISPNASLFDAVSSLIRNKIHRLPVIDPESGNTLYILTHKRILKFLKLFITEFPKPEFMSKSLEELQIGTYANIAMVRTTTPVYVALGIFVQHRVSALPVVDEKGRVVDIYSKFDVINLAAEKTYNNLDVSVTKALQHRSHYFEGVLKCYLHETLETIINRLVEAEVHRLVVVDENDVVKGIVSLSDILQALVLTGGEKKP
Source text: (§1) AMPK assays measured the transfer of radioactivity from labelled ATP to a peptide substrate, which was separated from unreacted ATP by binding to P81 paper. This assay was described previously, except that we used [γ-^33P]ATP rather than [γ-^32P]ATP. The peptide substrate was the AMARA peptide in all experiments other than one, which analyzed allosteric activation by AMP (Figure 2A), when, for technical reasons, the SAMS peptide was used instead. With purified preparations of AMPK, it was assayed in solution, but for assays in cell lysates (Figure 3D and Figure 4D), it was first immunoprecipitated using a mixture of anti-α1 and -α2 antibodies and assayed in resuspended immunoprecipitates. After the initial immunoprecipitation of lysate containing 80 µg of protein, the pellets were washed twice with 1 mL of high salt IP buffer (50 mM Tris-HCL, pH 7.4 at 4 °C, 1 M NaCl, 1 mM EDTA, 1 mM EGTA, 50 mM NaF, 5 mM Na pyrophosphate, 1 mM dithiothreitol, 0.1% (v/v) Triton X-100) and twice with 1 mL of low salt IP buffer (as above but only 150 mM NaCl), followed by a final wash in 1 mL of assay buffer (50 mM Na Hepes, pH7.4, 150 mM NaCl, 1 mM dithiothreitol, 0.02% (v/v) Brij-35). After each wash, the pellet was recovered via centrifugation (16,000× g, 3 min) and then resuspended. […]

human α1β1γ1 complex = human α1β1γ1 complex (Homo sapiens, UniProt Q13131); settings: previous estimate; read-out: IC50, inhibition of α1β1γ1; cited from earlier work
Chain of human α1β1γ1 complex (Q13131 whole entry): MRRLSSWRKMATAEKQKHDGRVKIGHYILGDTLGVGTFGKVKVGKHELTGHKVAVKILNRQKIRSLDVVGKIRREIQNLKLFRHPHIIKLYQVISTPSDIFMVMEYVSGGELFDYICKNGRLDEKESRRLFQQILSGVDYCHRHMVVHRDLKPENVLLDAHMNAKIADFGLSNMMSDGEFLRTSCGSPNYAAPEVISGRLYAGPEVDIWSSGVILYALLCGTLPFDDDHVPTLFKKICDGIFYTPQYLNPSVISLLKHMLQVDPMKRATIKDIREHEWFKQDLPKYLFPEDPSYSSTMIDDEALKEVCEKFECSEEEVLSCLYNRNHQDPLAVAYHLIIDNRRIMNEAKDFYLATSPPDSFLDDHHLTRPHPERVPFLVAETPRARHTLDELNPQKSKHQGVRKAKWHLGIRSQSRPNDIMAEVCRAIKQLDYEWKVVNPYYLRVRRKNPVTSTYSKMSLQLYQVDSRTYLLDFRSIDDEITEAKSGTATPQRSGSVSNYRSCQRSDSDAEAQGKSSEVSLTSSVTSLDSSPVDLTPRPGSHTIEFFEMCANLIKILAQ
Chain of human α1β1γ1 complex (P54619 whole entry, further chain): as the sequence (P54619 whole entry partner) above
Chain of human α1β1γ1 complex (Q9Y478 2-270, further chain): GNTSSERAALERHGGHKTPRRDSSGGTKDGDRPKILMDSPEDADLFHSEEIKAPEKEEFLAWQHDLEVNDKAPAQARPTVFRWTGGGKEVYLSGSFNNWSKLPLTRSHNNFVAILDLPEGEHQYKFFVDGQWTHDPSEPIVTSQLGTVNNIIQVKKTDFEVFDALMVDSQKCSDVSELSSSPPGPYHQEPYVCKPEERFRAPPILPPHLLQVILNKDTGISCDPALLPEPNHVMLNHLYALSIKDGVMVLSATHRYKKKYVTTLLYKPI

[2] = target: T2, LKB1 (human LKB1:STRADα:MO25α complex) (Homo sapiens, UniProt Q15831); settings: single fixed inhibitor concentration (0.25 µM); cited from earlier work
T2 construct: made in house
T2 sequence (Q15831 1-433): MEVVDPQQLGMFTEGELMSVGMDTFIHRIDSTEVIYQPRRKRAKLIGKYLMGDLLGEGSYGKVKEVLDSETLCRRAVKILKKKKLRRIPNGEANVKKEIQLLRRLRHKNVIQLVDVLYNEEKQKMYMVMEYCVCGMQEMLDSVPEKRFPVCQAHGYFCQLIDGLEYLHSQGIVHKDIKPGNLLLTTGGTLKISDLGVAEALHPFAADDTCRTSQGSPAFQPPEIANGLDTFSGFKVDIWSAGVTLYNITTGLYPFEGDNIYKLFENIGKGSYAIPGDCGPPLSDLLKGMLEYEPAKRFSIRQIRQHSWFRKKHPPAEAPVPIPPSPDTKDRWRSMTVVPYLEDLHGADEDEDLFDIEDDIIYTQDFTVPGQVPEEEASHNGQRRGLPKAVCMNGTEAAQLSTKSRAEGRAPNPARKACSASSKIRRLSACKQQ
T2 sequence (Q7RTN6 1-431 partner): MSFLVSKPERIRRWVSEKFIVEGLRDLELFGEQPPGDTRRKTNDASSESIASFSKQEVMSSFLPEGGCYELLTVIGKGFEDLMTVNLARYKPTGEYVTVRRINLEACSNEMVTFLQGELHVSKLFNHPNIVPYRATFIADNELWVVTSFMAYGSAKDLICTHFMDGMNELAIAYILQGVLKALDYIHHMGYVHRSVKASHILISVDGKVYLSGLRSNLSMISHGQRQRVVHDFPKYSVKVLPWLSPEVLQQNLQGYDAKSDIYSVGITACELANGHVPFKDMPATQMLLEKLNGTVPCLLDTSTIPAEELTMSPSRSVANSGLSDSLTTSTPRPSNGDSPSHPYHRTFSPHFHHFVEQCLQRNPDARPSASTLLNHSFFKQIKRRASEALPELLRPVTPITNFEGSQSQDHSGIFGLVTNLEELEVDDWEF
T2 sequence (Q9Y376 1-341 partner): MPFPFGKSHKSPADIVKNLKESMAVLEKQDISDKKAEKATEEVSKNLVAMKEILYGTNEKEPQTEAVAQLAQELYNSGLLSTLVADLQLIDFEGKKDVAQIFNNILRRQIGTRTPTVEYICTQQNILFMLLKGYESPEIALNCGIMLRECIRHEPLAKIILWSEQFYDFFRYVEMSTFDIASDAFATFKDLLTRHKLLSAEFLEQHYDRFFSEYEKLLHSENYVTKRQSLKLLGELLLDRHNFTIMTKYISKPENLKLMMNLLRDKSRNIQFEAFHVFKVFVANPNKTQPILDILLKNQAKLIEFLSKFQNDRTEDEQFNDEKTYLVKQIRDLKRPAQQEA

human α2β2γ1 complex [3] = target: T3, human α2β2γ1 complex (Homo sapiens, UniProt O43741+P54619+P54646); assay: Cell-free kinase assay of bacterially expressed human α2β2γ1 complex phosphorylated on Thr172 by CaMKK2; type: biochemical; settings: ATP 200 µM; read-out: IC50, inhibition of human α2β2γ1 complex
T3 construct: (His)6
T3 sequence (P54646 whole entry): as the sequence (P54646 whole entry) above
T3 sequence (O43741 whole entry partner): as the sequence (O43741 whole entry partner) above
T3 sequence (P54619 whole entry partner): as the sequence (P54619 whole entry partner) above
Source text: as §1

[4] = target: T4, “naïve” (unphosphorylated), bacterially expressed human α1β1γ1 complex (Homo sapiens, UniProt Q13131+Q9Y478); assay: Allosteric activation of naïve (unphosphorylated) α1β1γ1 complex by MK-8722 with and without BAY-3827; type: biochemical; settings: BAY-3827 30 nM
T4 construct: (His)6
T4 sequence (Q13131 whole entry): as the sequence (Q13131 whole entry) above
T4 sequence (Q9Y478 2-270): as the sequence (Q9Y478 2-270, further chain) above
T4 sequence (P54619 whole entry partner): as the sequence (P54619 whole entry partner) above
Source text: AMPK assays measured the transfer of radioactivity from labelled ATP to a peptide substrate, which was separated from unreacted ATP by binding to P81 paper. This assay was described previously, except that we used [γ-^33P]ATP rather than [γ-^32P]ATP. The peptide substrate was the AMARA peptide in all experiments other than one, which analyzed allosteric activation by AMP (Figure 2A), when, for technical reasons, the SAMS peptide was used instead. With purified preparations of AMPK, it was assayed in solution, but for assays in cell lysates (Figure 3D and Figure 4D), it was first immunoprecipitated using a mixture of anti-α1 and -α2 antibodies and assayed in resuspended immunoprecipitates. After the initial immunoprecipitation of lysate containing 80 µg of protein, the pellets were washed twice with 1 mL of high salt IP buffer (50 mM Tris-HCL, pH 7.4 at 4 °C, 1 M NaCl, 1 mM EDTA, 1 mM EGTA, 50 mM NaF, 5 mM Na pyrophosphate, 1 mM dithiothreitol, 0.1% (v/v) Triton X-100) and twice with 1 mL of low salt IP buffer (as above but only 150 mM NaCl), followed by a final wash in 1 mL of assay buffer (50 mM Na Hepes, pH7.4, 150 mM NaCl, 1 mM dithiothreitol, 0.02% (v/v) Brij-35). After each wash, the pellet was recovered via centrifugation (16,000× g, 3 min) and then resuspended. The final resuspended pellets from each biological replicate were divided into two aliquots (40 µg lysate protein) to provide technical replicates and assayed as above.

Aqueous solubility = type: physicochemical; settings: aqueous medium (not further specified)
[5] = tested on: human AMPK (α2β1γ1 complex); settings: low ATP concentration (10 µM); read-out: IC50, inhibition of human AMPK (α2β1γ1 complex); cited from earlier work
[6] = set-up: method as in ref 32 = [32]; 32. Lemos C. Schulze A. Overview for BAY-3827, an Inhibitor of PRKAA1, RPS6KA1 Available online: https://www.sgc-ffm.uni-frankfurt.de/chemProbes#!specificprobeoverview/BAY-3827 (accessed on 14 Novembe); settings: rat hepatocytes; cited from earlier work
[7] = set-up: method as in ref 32 = [32]; 32. Lemos C. Schulze A. Overview for BAY-3827, an Inhibitor of PRKAA1, RPS6KA1 Available online: https://www.sgc-ffm.uni-frankfurt.de/chemProbes#!specificprobeoverview/BAY-3827 (accessed on 14 Novembe); settings: mouse liver microsomes; cited from earlier work
[8] = tested on: RSK (RSK1-4, also known as RPS6KA1-4); settings: selectivity screen against 331 kinases, 1 µM, 10 µM ATP; cited from earlier work

Structure (SMILES)	pIC50 (human α2β2γ1 complex [1])	pIC50 (human α1β1γ1 complex)	inhibition of LKB1 [2]	pIC50 (human α2β2γ1 complex [3])	fold increase of EC50 for MK-8722 [4] [fold]	basal activity (without MK-8722) ([4]; control without inhibitor 11) [nmol/min/mg]	solubility (Aqueous solubility) [µg/mL]	pIC50 [5]	in vitro clearance (CL) [6] [mL/min/kg]	oral bio-availability (Fmax) [6] [%]	in vitro clearance (CL) [7] [mL/min/kg]	oral bio-availability (Fmax) [7] [%]	inhibition of all four isoforms of RSK [8]
CNC(=O)c1ccccc1Oc1nc(Nc2cc(OC)c(OC)c(OC)c2)ncc1Br [SBI-0206965]	6.69	6.52	did not inhibit										
CCc1ccccc1C(=O)Nc1n[nH]c2c(C)c(F)c(C3C(C#N)=C(C)N(C)C(C)=C3C#N)cc12 [BAY-3827]				7.15	7	8.7	0.3 (≈ 0.64 µM)	8.85	55	21	83	7	potently inhibit
